The source of these data is publication PMC6185959 (2018).

SMILES strings stand for the structures.

In assay [1] the test system is Pu22 (MYC G4) (DNA, G4) TGAGGGTGGGGAGGGTGGGGAA
Description: WaterLOGSY NMR. Conditions: 50 mM KCl, Tris-d11 pH 6.4, 20 °C, 5 µM oligo, 100 µM compound.

The subject of assay [2] is Alexa Fluor 647-Pu27 (MYC G4) (DNA, G4) TGGGGAGGGTGGGGAGGGTGGGGAAGG
The assay is described as follows: fluorescence intensity titration. To be noted: 50 mM KCl, 25 mM Tris pH 6.4, 2-3% DMSO, RT, 50 nM oligo, 2:1 model.

Assay [3] concerns Alexafluor647-BCL2 (DNA, G4) AGGGGCGGGCGCGGGAGGAAGGGGGCGGGA
Description: fluorescence intensity titration. To be noted: 50 mM KCl; 25 mM Tris pH 6.4, 2-3% DMSO, RT; 50 nM oligo; 2:1 model.

For assay [4], the system named is BCl2 (DNA, G4) AGGGGCGGGCGCGGGAGGAAGGGGGCGGGA
Description: CD melting. To be noted: 30 mM KCl; 10 mM Tris pH 6.3, 1% DMSO; 10 µM oligo, 40 µM compound.

In assay [5] the test system is MYC Pu22 G14T/G23T (NMR, 121) (DNA, G4) TGAGGGTGGGTAGGGTGGGTAA
Description: 1H NMR titration, imino shifts. Conditions: 50 mM KCl; 25 mM Tris-d11 pH 6.4, 10% DMSO-d6, 25 °C; overall KD, non-cooperative fit.

In assay [6] the test system is Alexafluor647-Telomeric DNA (DNA, G4) TTAGGGTTAGGGTTAGGGTTAGGGTTA
The assay is described as follows: fluorescence intensity titration. To be noted: 50 mM KCl; 25 mM Tris pH 6.4, 2-3% DMSO, RT; 50 nM oligo; 2:1 model.

Assay [7] deals with 131 (DNA, G4) TGAGGGTGGGTAAGGGTGGGTAA
Description: CD melting. To be noted: 30 mM KCl; 10 mM Tris pH 6.3, 1% DMSO; 10 µM oligo, 40 µM compound.

Assay [8] concerns 333 (DNA, G4) TGAGGGTTAGGGTAAGGGTTAGGGTAA
Description: CD melting. To be noted: 30 mM KCl; 10 mM Tris pH 6.3, 1% DMSO; 10 µM oligo, 40 µM compound.

Assay [9] has as its system no tail (DNA, G4) GGGTGGGGAGGGTGGG
The assay is described as follows: CD melting. Conditions: 30 mM KCl; 10 mM Tris pH 6.3, 1% DMSO; 10 µM oligo, 40 µM compound.

In assay [10] the test system is Pu22 (MYC G4) (DNA, G4) TGAGGGTGGGGAGGGTGGGGAA
The assay is described as follows: CD melting. To be noted: 30 mM KCl; 10 mM Tris pH 6.3, 1% DMSO; 10 µM oligo, 40 µM compound; Table S2 prints 7.6 ± 0.5.

Assay [11] relates to 122 (DNA, G4) TGAGGGTGGGTAGGGTAGGGTAA
Description: CD melting. To be noted: 30 mM KCl; 10 mM Tris pH 6.3, 1% DMSO; 10 µM oligo, 40 µM compound.

In assay [12] the test system is Pu27 (MYC G4) (DNA, G4) TGGGGAGGGTGGGGAGGGTGGGGAAGG
The assay is described as follows: CD melting. To be noted: 30 mM KCl; 10 mM Tris pH 6.3, 1% DMSO; 10 µM oligo, 40 µM compound.

Assay [13] deals with 5'-biotin Pu27 (MYC G4) (DNA, G4) TGGGGAGGGTGGGGAGGGTGGGGAAGG
The assay is described as follows: SPR. To be noted: 30 mM KCl; 10 mM Tris pH 6.4, 3% DMSO, 0.01% Tween-20; 1:1 Langmuir, highest affinity site.

Assay [14] relates to Alexafluor647-KRAS (DNA, G4) AGGGCGGTGTGGGAAGAGGGAAGAGGGGGAGGCAG
Description: fluorescence intensity titration. Conditions: 50 mM KCl; 25 mM Tris pH 6.4, 2-3% DMSO, RT; 50 nM oligo; 2:1 model.

Assay [15] relates to MYC Pu22 G14T/G23T (NMR, 121) (DNA, G4) TGAGGGTGGGTAGGGTGGGTAA
Description: solution NMR structure. To be noted: 50 mM KCl; 25 mM Tris-d11 pH 6.4, 25 °C; twofold excess compound; 5' and 3' tetrads.

In assay [16] the test system is Alexafluor647-NRAS (RNA, G4) UGUGGGAGGGGCGGGUCUGGG
The assay is described as follows: fluorescence intensity titration. To be noted: 50 mM KCl; 25 mM Tris pH 6.4, 2-3% DMSO, RT; 50 nM oligo; 2:1 model.

Assay [17] concerns MYB (DNA, G4) GGAGGAGGAGGTCACGGAGGAGGAGGAGAAGGAGGAGGAGGA
Description: CD melting. To be noted: 30 mM KCl; 10 mM Tris pH 6.3, 1% DMSO; 10 µM oligo, 40 µM compound.

In assay [18] the test system is 221 (DNA, G4) TGAGGGTAGGGTAGGGTGGGTAA
Description: CD melting. To be noted: 30 mM KCl; 10 mM Tris pH 6.3, 1% DMSO; 10 µM oligo, 40 µM compound.

Assay [19] deals with Alexafluor647-VEGF (DNA, G4) CGGGGCGGGCCGGGGGCGGGGT
Description: fluorescence intensity titration. Conditions: 50 mM KCl; 25 mM Tris pH 6.4, 2-3% DMSO, RT; 50 nM oligo; 2:1 model.

In assay [20] the test system is dsDNA (DNA, duplex) CAATCGGATCGAATTCGATCCGATTG
The assay is described as follows: CD melting. To be noted: 30 mM KCl; 10 mM Tris pH 6.3, 1% DMSO; 10 µM oligo, 40 µM compound.

In assay [21] the test system is HIF1a (DNA, G4) GGGAGGGAGAGGGGGCGGG
Description: CD melting. Conditions: 30 mM KCl; 10 mM Tris pH 6.3, 1% DMSO; 10 µM oligo, 40 µM compound.

The subject of assay [22] is GAT Tail (A25T) (DNA, G4) TGAGGGTGGGGAGGGTGGGGAT
The assay is described as follows: CD melting. To be noted: 30 mM KCl; 10 mM Tris pH 6.3, 1% DMSO; 10 µM oligo, 40 µM compound.

With `CN[C@H](C(=O)O)C(C)C`, the binding result in assay [1] (internal non-binding control) was “no”.
`Cc1ccc(NC(=O)c2c(C)oc3ccc(O)c(CN4CCCCCC4)c23)cc1`: the KD in [2] was found to be 0.0232 ± 0.0076 mM.
As for `Cc1oc2ccc(O)c(CN3CCCCCC3)c2c1C(=O)Nc1ccc(C(F)(F)F)cc1`, the KD stood at 0.0173 ± 0.0044 mM in assay [3]; 0.0165 ± 0.0011 mM in assay [5]; 0.0403 ± 0.01 mM in assay [6]; 0.0094 ± 0.0011 mM in assay [2] (Table S1 prints 9.1 ± 1.1); 1.4 ± 1.2 µM in [13]; 0.0442 ± 0.0038 mM in [14]. This compound yielded a KD in assay [19] of 0.0183 ± 0.0034 mM. The ΔTm came to 4.2 ± 0.4 °C in assay [4]; 4.6 ± 0.3 °C in assay [7]; 0.0 ± 1.0 °C in [8]; 4.3 ± 1.7 °C in [9]; 7.4 ± 0.5 °C in [10]; 7.0 ± 0.3 °C in assay [11]. Moreover, the ΔTm in [12] stood at 7.5 ± 2.0 °C; in [17], 1.5 ± 0.3 °C; in [18], 4.0 ± 1.0 °C; in assay [20], 0.6 ± 0.7 °C; in assay [21], 0.2 ± 1.1 °C; in assay [22], 4.5 ± 0.8 °C. Besides, the binding result is given as “yes” in assay [15], “weak” in assay [16] and “yes” in [1].
